# Assay results as given in patent US20160310571A1, “Pharmaceutical Composition Comprising Erythropoietin and Ceftriaxone and A Method for Treating Parkinson's Disease Dementia” (Chung Shan Medical University, priority 2015, published 2016).
# How the values were obtained:
# Assay type in all cases: in vivo, rat
# [1] = test system: pyramidal neuron in the hippocampal CA1 area; test: Histopathological analysis: Nissl staining of hippocampal CA1 sections; conditions: 14th day, vs group A1 (saline), p<0.001
# Protocol: (§1) Wistar male rats (12 week-old, weight ˜400 grams) purchased from the National Laboratory Animal Center (R.O.C.) are used. The rats are housed in an animal room with constant temperature of 24±1° C., where is kept on a 12-hours light and 12-hours dark cycle. The rats are housed and kept on free diet and water.
# (§2) On the 1st day, the rats are anesthetized, followed by bilaterally MPTP (1-methyl-4-phenyl-1,2,3,6-tetrahydropyridine hydrochloride)-infusion into the substantia nigra pars compacta (SNc). The rats with cognitive impairments on working memory and object recognition are used as the PDD rats (Ho et al., Behav Brain Res 268: 177-184, 2014).
# (§3) Starting on the 1st day, referring to TABLE 1, saline (group Al), erythropoietin (groups A2 & A3) and ceftriaxone (groups A4 & A5) are administrated to the PDD rats in the corresponding groups. Erythropoietin and ceftriaxone are sequentially administrated to the PDD rats of group A6 with a time interval of 30 minutes. Saline is also used to be administrated to the normal rats of group A0. Moreover, saline, erythropoietin and ceftriaxone are administrated for 14 days (from the 1st day to the 14th day).
# (§4) On the 14th day, the rats of groups A0-A6 are sacrificed and the coronal sections are collected. The sections with SNc are used for tyrosine hydroxylase staining, while the sections with hippocampal CA1 area are used for Nissl staining. […]
# PDD rats [2] = test: T-maze test (working memory) in MPTP-induced PDD rats; conditions: test on 10th day, vs chance (50%)
# Protocol: as §1, §2
# Starting on the 1st day, referring to TABLE 1, saline (group Al), erythropoietin (groups A2 & A3) and ceftriaxone (groups A4 & A5) are administrated to the PDD rats in the corresponding groups. Erythropoietin and ceftriaxone are sequentially administrated to the PDD rats of group A6 with a time interval of 30 minutes. […]
# Working memory of the rats of groups A0-A6 is assessed using the T-maze test (Ho et al., Behav Brain Res 268: 177-184, 2014). […]
# On the 10th day, a test session consisting 3 rounds, each of which is composed of a “forced run” and two “choice run”, is carried out. The number of the rewards “R” that the rat under test “M” get (% of correct response) in the 6 choice runs is recorded.
# [3] = test system: DAergic neuron in the SNc; test: Histopathological analysis: tyrosine hydroxylase staining of SNc sections; conditions: 14th day, vs group A1 (saline)
# Protocol: as §1, §2, §3, §4
# PDD rats [4] = test: Object recognition test in MPTP-induced PDD rats; conditions: 13th day
# Protocol: as §1, §2
# Starting on the 1st day, referring to TABLE 1, saline (group Al), erythropoietin (groups A2 & A3) and ceftriaxone (groups A4 & A5) are administrated to the PDD rats in the corresponding groups. […]
# Recognition ability of the rats of groups A0-A6 is measured using the object recognition test (Ho et al., Behav Brain Res 268: 177-184, 2014). […]
# On the 13th day, the rat under test “M” is first placed in the open box shown as FIG. 4a, and the time spent exploring the object O1 (TO1) and the total time spent exploring the objects O1, O2 & O3 (TO1+O2+O3) are recorded, respectively. The percentage of the exploration time spent on the object O1 is calculated as (TO1/TO1+O2+O3)*100%. […]
# [5] = group A4, ceftriaxone 5 mg/kg/day, p<0.05
structure (smiles),measurement,setting,value
CO/N=C(\C(=O)N[C@@H]1C(=O)N2C(C(=O)O)=C(CSc3nc(=O)c(=O)[nH]n3C)CS[C@H]12)c1csc(N)n1 [ceftriaxone],percentage of the CA1 area occupied by the pyramidal neuron,"[1]; group A4, ceftriaxone 5 mg/kg/day",recovery of pyramidal neuron density in the CA1 area
same,percentage of the CA1 area occupied by the pyramidal neuron,"[1]; group A5, ceftriaxone 10 mg/kg/day",recovery of pyramidal neuron density in the CA1 area
same,percentage of correct response in T-maze test (working memory),PDD rats [2]; [5],slightly treatment on the cognitive impairment on working memory
same,percentage of correct response in T-maze test (working memory),"PDD rats [2]; group A5, ceftriaxone 10 mg/kg/day, p<0.001",significant treatment on the cognitive impairment on working memory
same,density of DAergic neuron in the SNc,[3]; [5],recovery of DAergic neuron density in the SNc
same,density of DAergic neuron in the SNc,"[3]; group A5, ceftriaxone 10 mg/kg/day, p<0.01",recovery of DAergic neuron density in the SNc
same,percentage of time exploring novel object O4 vs object O1 (recognition ability),"PDD rats [4]; group A4, ceftriaxone 5 mg/kg/day, p<0.001",can recognize the novel object O4 in the environment
same,percentage of time exploring novel object O4 vs object O1 (recognition ability),"PDD rats [4]; group A5, ceftriaxone 10 mg/kg/day, p<0.05",can recognize the novel object O4 in the environment
